Experimental findings from US20230184744A1, “INTERTUMORAL HOMOGENEITY DETERMINED BY MiCK ASSAY” (Pierian Biosciences, LLC, priority 2014, published 2023) are described below.

For experiment [1], the system named is NSCLC, multi-focal, recurrent adenocarcinoma (lymph node). The experiment in a line: MiCK assay, drug-induced apoptosis, Table 3 tumor D2. Type of experiment: cell-based, human. The following applies: Table 3 tumor D2: NSCLC, multi-focal, recurrent adenocarcinoma (lymph node); 48 hours with drug. The text has this: (§1) Data were obtained optically using Mie light-scattering.
(§2) Do a test well. […] Look at the well under the inverted microscope. […] Repeat until optimal cell concentration is found. Plate the cells into the wells.

The test system of experiment [2] is Lung adenocarcinoma (site B). Kind of experiment: MiCK assay, drug-induced apoptosis, Table 4 tumor C2. The note with it: Table 4 tumor C2: Lung adenocarcinoma (site B); 48 hours with drug.
Protocol: (§4) After overnight incubation, chemotherapy drugs were added to the wells of the 96-well plate in 5 μL aliquots or to the wells of a 384-well plate in 2.5 μL aliquots using an automated pipettor. The number of drugs or drug combinations and the number of concentrations tested depended on the number of viable malignant cells that were isolated from the tumor specimen. The drug concentrations, determined by molarity, were those indicated by the manufacturer as the desired blood level concentration plus or minus one serial dilution if enough cells were available.
(§5) Following drug addition, the plate was incubated for 30 min. at 37° C. in a 5% carbon dioxide humidified atmosphere incubator. Each well was then overlayed with sterile mineral oil, and the plate was placed into the incubator chamber of a microplate spectrophotometric reader. The optical density at 600 nanometers was read and recorded every 5 minutes over a period of 48 hours. Optical density increases, which correlates with apoptosis, were converted to kinetic units (KU) of apoptosis by a proprietary software ProApo with a formula described in the Kravtsov reference incorporated by reference (i.e. Kravtsov V. et al. “Use of the Microculture Kinetic Assay of apoptosis to determine chemosensitivities of leukemias.” Blood 1998; 92:968-980).
(§6) Purified tumor cells were cultured for 48 hours with individual drugs, and drug-induced apoptosis was measured using the MiCK assay as described in Example 1. Data were obtained optically using Mie light-scattering.
The test system of experiment [3] is Pancreatic islet cell cancer (lymph node). The experiment in a line: MiCK assay, drug-induced apoptosis, Table 4 tumor A1. The following applies: Table 4 tumor A1: Pancreatic islet cell cancer (lymph node); 48 hours with drug.
Protocol: as §4
(§7) Following drug addition, the plate was incubated for 30 min. at 37° C. in a 5% carbon dioxide humidified atmosphere incubator. Each well was then overlayed with sterile mineral oil, and the plate was placed into the incubator chamber of a microplate spectrophotometric reader. The optical density at 600 nanometers was read and recorded every 5 minutes over a period of 48 hours.
(§8) Patients: Three patients were included in this study. Two tumor samples from different tumor sites were collected from each patient. Both samples from each patient were collected on the same day.
In experiment [4] the test system is NSCLC, multi-focal, recurrent adenocarcinoma (site B). Kind of experiment: MiCK assay, drug-induced apoptosis, Table 3 tumor C2. The class given is cell-based, human. The following applies: Table 3 tumor C2: NSCLC, multi-focal, recurrent adenocarcinoma (site B); 48 hours with drug.
Source text: as §1, §2

The subject of experiment [5] is NSCLC, multi-focal, recurrent adenocarcinoma (site A). The experiment in a line: MiCK assay, drug-induced apoptosis, Table 3 tumor C1. The class given is cell-based, human. The following applies: Table 3 tumor C1: NSCLC, multi-focal, recurrent adenocarcinoma (site A); 48 hours with drug.
Source text: as §1, §2

In experiment [6] the test system is NSCLC, multi-focal adenocarcinoma (site B). Kind of experiment: MiCK assay, drug-induced apoptosis, Table 3 tumor E2. The class given is cell-based, human. The following applies: Table 3 tumor E2: NSCLC, multi-focal adenocarcinoma (site B); 48 hours with drug.
Source text: as §1, §2

Experiment [7] relates to Pancreatic islet cell cancer (primary tumor). The experiment in a line: MiCK assay, drug-induced apoptosis, Table 4 tumor A2. The following applies: 48 hours with drug.
Protocol: as §4, §5, §6
Experiment [8] deals with Lung small cell carcinoma (site A). Kind of experiment: MiCK assay, drug-induced apoptosis, Table 4 tumor C1. The following applies: Table 4 tumor C1: Lung small cell carcinoma (site A); 48 hours with drug.
Protocol: as §4, §7, §8
Experiment [9] relates to NSCLC, bilateral well-differentiated adenocarcinoma (site 1B). Kind of experiment: MiCK assay, drug-induced apoptosis, Table 3 tumor B2. The following applies: Table 3 tumor B2: NSCLC, bilateral well-differentiated adenocarcinoma (site 1B); 48 hours with drug. Type of experiment: cell-based, human.
Source text: as §1, §2

The test system of experiment [10] is NSCLC, bilateral well-differentiated adenocarcinoma (site 1A). Kind of experiment: MiCK assay, drug-induced apoptosis, Table 3 tumor B1. Type of experiment: cell-based, human. The following applies: Table 3 tumor B1: NSCLC, bilateral well-differentiated adenocarcinoma (site 1A); 48 hours with drug.
Source text: as §1, §2

Experiment [11] deals with Lung adenocarcinoma (pleural effusion). The experiment in a line: MiCK assay, drug-induced apoptosis, Table 4 tumor B1. The class given is cell-based, human. The following applies: Table 4 tumor B1: Lung adenocarcinoma (pleural effusion); 48 hours with drug.
Source text: as §1
(§3) Patients: Three patients were included in this study. […] Patient A was diagnosed with pancreatic islet cell cancer; sample 1 was collected from lymph node and sample 2 was collected from the primary tumor. Patient B was diagnosed with lung cancer NSCLC adenocarcinoma; sample 1 was collected from pleural effusion and sample 2 was collected from solid tumor. […] Ages of the patients ranged from 51-79 years old with an average age of 65 years. One patient was […] and two were female.

In experiment [12] the test system is NSCLC, multi-focal adenocarcinoma (site A). The experiment in a line: MiCK assay, drug-induced apoptosis, Table 3 tumor E1. The class given is cell-based, human. The following applies: Table 3 tumor E1: NSCLC, multi-focal adenocarcinoma (site A); 48 hours with drug.
Source text: as §1, §2

Experiment [13] relates to NSCLC, multi-focal, recurrent adenocarcinoma (right lung). The experiment in a line: MiCK assay, drug-induced apoptosis, Table 3 tumor D1. The class given is cell-based, human. The following applies: Table 3 tumor D1: NSCLC, multi-focal, recurrent adenocarcinoma (right lung); 48 hours with drug.
Source text: as §1, §2

Experiment [14] has as its system Probable mesothelioma (pleural effusion). The experiment in a line: MiCK assay, drug-induced apoptosis, Table 3 tumor A2. Type of experiment: cell-based, human. The following applies: Table 3 tumor A2: Probable mesothelioma (pleural effusion); 48 hours with drug. On the procedure:
as §1
When the optimal cell concentration is reached, put the cells in the plate and incubate overnight in the incubating chamber of the incubator (37° C.).

The subject of experiment [15] is Lung adenocarcinoma (solid tumor). Kind of experiment: MiCK assay, drug-induced apoptosis, Table 4 tumor B2. Type of experiment: cell-based, human. The following applies: Table 4 tumor B2: Lung adenocarcinoma (solid tumor); 48 hours with drug.
Source text: as §1, §3

The structures appear in SMILES notation.

`N.N.O=C([O-])C1(C(=O)[O-])CCC1.[Pt+2]` [Carboplatin]: the “kinetic units (KU) of apoptosis” value was found to be 0.80 KU in experiment [1]; 2.60 KU in [2]; 1.08 KU in [3]; 1.20 KU in experiment [4]; 0.40 KU in experiment [5]; 0.30 KU in [6]. The “kinetic units (KU) of apoptosis” value in experiment [7] stood at 1.48 KU; in experiment [8], 5.30 KU; in experiment [9] it was 2.20 KU; in [10], 1.90 KU; in [11], 1.20 KU; in experiment [12] it was 0.30 KU. Also, the “kinetic units (KU) of apoptosis” value in experiment [13] worked out at 1.00 KU; in experiment [14], 1.50 KU; in experiment [15] it was 2.40 KU.

With `N.N.[Cl][Pt][Cl]` [Cisplatin], the “kinetic units (KU) of apoptosis” value in experiment [1] was determined as 1.00 KU; in [2], 5.40 KU; in experiment [3], 1.31 KU; in [4] it was 2.10 KU; in experiment [5], 0.00 KU; in experiment [6] it was 0.50 KU. The “kinetic units (KU) of apoptosis” value is 1.75 KU in [7]; 6.40 KU in [8]; 2.10 KU in experiment [9]; 1.50 KU in [10]; 2.20 KU in [11]; 0.80 KU in experiment [12]. The “kinetic units (KU) of apoptosis” value in [13] was 1.00 KU; in experiment [14], 2.80 KU; in experiment [15], 2.20 KU.

Consider `CC(=O)O[C@@]12CO[C@@H]1C[C@H](O)[C@@]1(C)C(=O)[C@H](O)C3=C(C)[C@@H](OC(=O)[C@H](O)[C@@H](NC(=O)OC(C)(C)C)c4ccccc4)C[C@@](O)([C@@H](OC(=O)c4ccccc4)[C@H]21)C3(C)C` [Docetaxel], for which the “kinetic units (KU) of apoptosis” value in [1] is given as 0.70 KU; in [2], 2.10 KU; in experiment [3], 3.20 KU; in experiment [4] it was 2.30 KU; in experiment [5] it was 0.90 KU; in experiment [6], 0.20 KU. For the same molecule, the “kinetic units (KU) of apoptosis” value in experiment [7] worked out at 2.65 KU; in [8], 3.20 KU; in experiment [9], 2.00 KU; in experiment [10] it was 2.60 KU; in [11], 4.20 KU; in experiment [12], 0.90 KU. Further, the “kinetic units (KU) of apoptosis” value was 0.50 KU in experiment [13], 1.10 KU in experiment [14] and 2.40 KU in experiment [15].

Turning to `COc1cccc2c1C(=O)c1c(O)c3c(c(O)c1C2=O)C[C@@](O)(C(=O)CO)C[C@@H]3O[C@H]1C[C@H](N)[C@H](O)[C@H](C)O1` [Doxorubicin], the “kinetic units (KU) of apoptosis” value worked out at 1.40 KU in experiment [1]; 0.90 KU in experiment [2]; 1.27 KU in experiment [3]; 1.50 KU in experiment [4]; 0.80 KU in experiment [5]; 1.50 KU in [6]. Besides, the “kinetic units (KU) of apoptosis” value is given as 2.06 KU in experiment [7]; 1.60 KU in experiment [8]; 0.90 KU in experiment [9]; 1.70 KU in experiment [10]; 3.50 KU in experiment [11]; 1.60 KU in experiment [12]. For the same molecule, the entries for the “kinetic units (KU) of apoptosis” value in [13], in [14] and in [15] were 1.50 KU, 3.80 KU and 3.50 KU, respectively.

With `CC(=O)O[C@H]1C(=O)[C@@]2(C)[C@H]([C@H](OC(=O)c3ccccc3)[C@]3(O)C[C@H](OC(=O)[C@H](O)[C@@H](NC(=O)c4ccccc4)c4ccccc4)C(C)=C1C3(C)C)[C@]1(OC(C)=O)CO[C@@H]1C[C@@H]2O` [Paclitaxel], the “kinetic units (KU) of apoptosis” value was 0.90 KU in [1]; 3.60 KU in [2]; 3.43 KU in experiment [3]; 1.00 KU in experiment [4]; 0.00 KU in [5]; 0.50 KU in experiment [6]. The “kinetic units (KU) of apoptosis” value in experiment [7] is recorded as 2.06 KU; in [8] it was 1.70 KU; in experiment [9], 0.90 KU; in experiment [10], 1.70 KU; in [11], 3.00 KU; in [12], 0.00 KU. Also, the “kinetic units (KU) of apoptosis” value was 1.40 KU in experiment [13], 1.40 KU in experiment [14] and 4.00 KU in [15].

On to `CCC1=C[C@@H]2CN(C1)Cc1c([nH]c3ccccc13)[C@@](C(=O)OC)(c1cc3c(cc1OC)N(C)[C@H]1[C@@](O)(C(=O)OC)[C@H](OC(C)=O)[C@]4(CC)C=CCN5CC[C@]31[C@@H]54)C2` [Vinorelbine], for which the “kinetic units (KU) of apoptosis” value in experiment [1] is reported as 1.00 KU; in experiment [2], 2.50 KU; in experiment [3], 1.18 KU; in [4] it was 0.00 KU; in experiment [5] it was 0.20 KU; in [6], 0.00 KU. Moreover, the “kinetic units (KU) of apoptosis” value was 3.50 KU in experiment [8]; 1.70 KU in experiment [9]; 1.20 KU in [10]; 3.90 KU in [11]; 0.40 KU in [12]; 0.40 KU in [13]. For the same molecule, the entries for the “kinetic units (KU) of apoptosis” value in experiment [14] and in [15] were 2.10 KU and 2.70 KU, respectively.
